Test results published in PubChem BioAssay AID2719 (The Scripps Research Institute Molecular Screening Center, 2010).

What follows are molecules tested against Mucolipin-3 (Homo sapiens) (UniProt Q8TDD5) (assay: TRPML3 and related TRP channel activation – cell-based, HEK293 transfected, Fura-2 ratio imaging, selectivity assay for selective TRPML3 agonist project, profiling panel (AID 2719)). Conditions: fura-2 calcium ratio, at 10 µM, hits give high values; call rule not given here.
Sequence of Mucolipin-3 (Homo sapiens) (Q8TDD5 whole entry, looked up): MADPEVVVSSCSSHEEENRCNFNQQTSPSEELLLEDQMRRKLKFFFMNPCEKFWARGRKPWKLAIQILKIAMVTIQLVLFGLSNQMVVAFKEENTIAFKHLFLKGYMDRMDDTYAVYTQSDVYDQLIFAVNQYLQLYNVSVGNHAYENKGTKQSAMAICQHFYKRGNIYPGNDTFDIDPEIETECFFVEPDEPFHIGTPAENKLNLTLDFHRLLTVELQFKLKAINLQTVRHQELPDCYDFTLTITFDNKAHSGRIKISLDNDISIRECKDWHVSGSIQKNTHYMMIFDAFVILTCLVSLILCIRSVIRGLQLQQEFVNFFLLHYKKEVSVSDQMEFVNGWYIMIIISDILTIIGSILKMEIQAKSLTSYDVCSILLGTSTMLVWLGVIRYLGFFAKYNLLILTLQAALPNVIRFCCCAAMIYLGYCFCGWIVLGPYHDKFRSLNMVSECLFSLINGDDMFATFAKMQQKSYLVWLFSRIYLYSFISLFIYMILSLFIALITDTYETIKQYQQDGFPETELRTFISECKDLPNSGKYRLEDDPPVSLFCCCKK

fura-2 ratio change (340/380), active:
CCOc1ccc(S(=O)(=O)N2CCCCCC2)c2ccccc12 1
CC1CCN(S(=O)(=O)c2ccc(C(C)C)cc2)CC1 0.52
Cc1ccc(S(=O)(=O)n2nccc2-c2c(-c3ccc(Cl)cc3)noc2C)cc1 0.72
